In US20140058103A1, “Inhibitors of PI3K-Delta and Methods of Their Use and Manufacture” (Exelixis, Inc., priority 2010, published 2014):

What follows are compounds tested against PI3K delta (Homo sapiens, UniProt O00329) (assay: Luciferase-coupled chemiluminescence kinase assay (ATP consumption, KinaseGlo)).
Format: biochemical
In short: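 Compound, kinase and ATP (≤ KM) reacted 2 h at ambient temperature, then remaining ATP quantified with luciferase-luciferin (KinaseGlo) luminescence as percent consumed.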

PI3K delta, sequence (O00329 whole entry): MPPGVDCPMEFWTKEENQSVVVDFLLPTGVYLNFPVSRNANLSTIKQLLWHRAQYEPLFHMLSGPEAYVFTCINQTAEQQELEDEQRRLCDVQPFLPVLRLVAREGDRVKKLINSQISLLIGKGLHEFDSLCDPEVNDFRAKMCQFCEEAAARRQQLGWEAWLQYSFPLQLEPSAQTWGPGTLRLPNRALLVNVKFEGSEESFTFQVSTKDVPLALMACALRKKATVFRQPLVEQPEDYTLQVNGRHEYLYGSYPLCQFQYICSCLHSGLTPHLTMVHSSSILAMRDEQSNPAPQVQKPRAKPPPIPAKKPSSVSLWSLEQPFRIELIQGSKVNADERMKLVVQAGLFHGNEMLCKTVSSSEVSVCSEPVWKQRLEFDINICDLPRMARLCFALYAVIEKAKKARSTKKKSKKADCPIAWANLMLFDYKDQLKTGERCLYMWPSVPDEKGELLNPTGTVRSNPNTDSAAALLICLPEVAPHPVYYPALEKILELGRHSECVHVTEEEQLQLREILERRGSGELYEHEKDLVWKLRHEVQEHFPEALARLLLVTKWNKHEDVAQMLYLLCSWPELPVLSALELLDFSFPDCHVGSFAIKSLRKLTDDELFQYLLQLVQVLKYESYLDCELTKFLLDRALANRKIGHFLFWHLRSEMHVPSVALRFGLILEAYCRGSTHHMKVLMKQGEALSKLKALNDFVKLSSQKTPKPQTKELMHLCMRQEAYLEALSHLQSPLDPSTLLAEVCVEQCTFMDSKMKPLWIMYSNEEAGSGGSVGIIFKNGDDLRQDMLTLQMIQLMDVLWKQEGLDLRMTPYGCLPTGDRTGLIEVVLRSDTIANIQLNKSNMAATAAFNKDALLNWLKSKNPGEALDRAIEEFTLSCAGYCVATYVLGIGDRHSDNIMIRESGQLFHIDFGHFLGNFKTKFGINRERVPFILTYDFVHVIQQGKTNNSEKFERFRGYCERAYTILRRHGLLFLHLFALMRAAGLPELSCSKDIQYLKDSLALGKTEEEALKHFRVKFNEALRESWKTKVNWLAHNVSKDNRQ
PI3K delta, sequence (P27986 whole entry partner): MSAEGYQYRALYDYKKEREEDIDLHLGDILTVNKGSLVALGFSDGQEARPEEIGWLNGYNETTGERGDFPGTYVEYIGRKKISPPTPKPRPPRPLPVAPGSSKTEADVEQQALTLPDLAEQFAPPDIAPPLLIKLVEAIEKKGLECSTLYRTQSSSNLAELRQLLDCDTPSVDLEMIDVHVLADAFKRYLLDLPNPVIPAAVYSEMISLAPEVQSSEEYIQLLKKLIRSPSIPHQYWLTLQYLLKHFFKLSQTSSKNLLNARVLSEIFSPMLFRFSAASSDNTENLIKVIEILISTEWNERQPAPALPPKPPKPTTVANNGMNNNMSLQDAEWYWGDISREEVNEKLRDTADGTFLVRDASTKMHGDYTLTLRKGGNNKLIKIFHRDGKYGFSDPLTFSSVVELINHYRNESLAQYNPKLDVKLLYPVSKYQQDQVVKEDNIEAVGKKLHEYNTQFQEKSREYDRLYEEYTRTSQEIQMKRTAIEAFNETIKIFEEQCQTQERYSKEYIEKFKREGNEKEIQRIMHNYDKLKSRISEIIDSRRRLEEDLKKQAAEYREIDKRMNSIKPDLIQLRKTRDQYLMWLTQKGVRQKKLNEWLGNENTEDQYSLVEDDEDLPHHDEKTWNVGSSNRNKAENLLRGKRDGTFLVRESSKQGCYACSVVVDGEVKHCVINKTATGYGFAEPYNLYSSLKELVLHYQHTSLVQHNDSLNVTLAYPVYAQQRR

| SMILES | IC50 [nM] |
| --- | --- |
| Cn1cc(-c2nc3c(N4CCN(c5ccccc5S(C)(=O)=O)CC4)ncnc3n2C)cn1 [Compound 350, 9-methyl-8-(1-methyl-1H-pyrazol-4-yl)-6-{4-[2-(methylsulfonyl)phenyl]piper-azin-1-yl}-9H-purine] | 500 to 1500 |
| Cc1ccoc1-c1nc2c(N3CCC(n4c(=O)[nH]c5ccccc54)CC3)ncnc2n1C [Compound 128, 1-{1-[9-methyl-8-(3-methylfuran-2-yl)-9H-purin-6-yl]piperidin-4-yl}-1,3-dihydro-2H-benzimidazol-2-one] | 250 to 500 |
| Cn1cc(-c2nc3c(N4CCN(S(=O)(=O)c5c(Cl)cccc5Cl)CC4)ncnc3n2C)cn1 [Compound 391, 6-{4-[(2,6-dichlorophenyl)sulfonyl]piperazin-1-yl}-9-methyl-8-(1-methyl-1H-pyrazol-4-yl)-9H-purine] | 250 to 500 |
| C#CCNC(=O)c1nc2c(N3CCC(n4c(=O)[nH]c5ccccc54)CC3)ncnc2n1C [Compound 139, 9-methyl-6-[4-(2-oxo-2,3-dihydro-1H-benzimidazol-1-yl)piperidin-1-yl]-N-prop-2-yn-1-yl-9H-purine-8-carboxamide] | 50 to 250 |
| Cn1c(C(=O)NCC(F)(F)F)nc2c(N3CCC(n4c(=O)[nH]c5ncccc54)CC3)ncnc21 [Compound 319, 9-methyl-6-[4-(2-oxo-2,3-dihydro-1H-imidazo[4,5-b]pyridin-1-yl)piperidin-1-yl]-N-(2,2,2-trifluoroethyl)-9H-purine-8-carboxamide] | < 50 |
| CCCc1nnc(-c2nc3c(N4CCC5(CC4)C(=O)Nc4ccccc45)ncnc3n2CC)o1 [Compound 227, 1′-[9-ethyl-8-(5-propyl-1,3,4-oxadiazol-2-yl)-9H-purin-6-yl]spiro[indole-3,4′-piperidin]-2(1H)-one] | < 50 |
| CCn1c(-c2cnn(C)c2)nc2c(N3CCC(n4c(=O)[nH]c5ncccc54)CC3)ncnc21 [Compound 323, 1-{1-[9-ethyl-8-(1-methyl-1H-pyrazol-4-yl)-9H-purin-6-yl]piperidin-4-yl}-1,3-dihydro-2H-imidazo[4,5-b]pyridin-2-one] | < 50 |
| Cn1c(-c2ccncn2)nc2c(N3CCC(n4c(=O)[nH]c5ccccc54)CC3)ncnc21 [Compound 298, 1-[1-(9-methyl-8-pyrimidin-4-yl-9H-purin-6-yl)piperidin-4-yl]-1,3-dihydro-2H-benzimidazol-2-one] | 250 to 500 |
| Cc1cccc(C(=O)NCc2ccccc2N2CCN(c3ncnc4c3nc(-c3cnn(C)c3)n4C)CC2)c1 [Compound 363, 3-methyl-N-[(2-{4-[9-methyl-8-(1-methyl-1H-pyrazol-4-yl)-9H-purin-6-yl]piperazin-1-yl}phenyl)methyl]benzamide] | 250 to 500 |
| Cn1cc(-c2nc3c(N4CCN(c5ccc(OCc6ccc7ccccc7n6)cc5)CC4)ncnc3n2C)cn1 [Compound 361, 2-{[(4-(4-[9-methyl-8-(1-methyl-1H-pyrazol-4-yl)-9H-purin-6-yl]piperazin-1-yl}phenyl)oxy]methyl)-quinoline] | 500 to 1500 |
| Cn1c(C(=O)NCC(C)(C)C)nc2c(N3CCC4(CC3)C(=O)Nc3ccccc34)ncnc21 [Compound 96, N-(2,2-dimethylpropyl)-9-methyl-6-(2-oxo-1,2-dihydro-1′H-spiro[indole-3,4′-piperidin]-1′-yl)-9H-purine-8-carboxamide] | 50 to 250 |
| Cn1cc(-c2nc3c(N4CCN(S(=O)(=O)c5ccccc5C(F)(F)F)CC4)ncnc3n2C)cn1 [Compound 378] | 50 to 250 |
| Cn1ncc(-c2nc3c(N4CCC(n5c(=O)[nH]c6ccccc65)CC4)ncnc3n2C)c1Cl [Compound 272, 1-{1-[8-(5-chloro-1-methyl-1H-pyrazol-4-yl)-9-methyl-9H-purin-6-yl]piperidin-4-yl}-1,3-dihydro-2H-benzimidazol-2-one] | < 50 |
| CCn1c(-c2cnc(N(C)C)nc2)nc2c(N3CCC(n4c(=O)[nH]c5ccccc54)CC3)ncnc21 [Compound 320, 1-[1-{8-[2-(dimethylamino)pyrimidin-5-yl]-9-ethyl-9H-purin-6-yl)piperidin-4-yl)-1,3-dihydro-2H-benzimidazol-2-one] | < 50 |
